Source: PMC8659031, “Substituted Aryl Benzylamines as Potent and Selective Inhibitors of 17β-Hydroxysteroid Dehydrogenase Type 3” (Molecules, 2021)
Entries after “also recorded” stand apart in the source; their conditions may differ. Like-named read-outs stand apart in the source and are kept apart here.

Columns and labels:
17β-HSD3 = target: T1, 17β-HSD3 (Homo sapiens, UniProt P37058); assay: Assay for 17β-HSD3 activity (TLC assay) in 293-EBNA cells stably transfected with 17β-HSD3; assay type: cell-based; conditions: for inhibition at 10 µM: 293-EBNA
T1 construct: expressed in transfected cells; host or cells: human 293-EBNA cells, stably transfected
T1 sequence (P37058 1-310): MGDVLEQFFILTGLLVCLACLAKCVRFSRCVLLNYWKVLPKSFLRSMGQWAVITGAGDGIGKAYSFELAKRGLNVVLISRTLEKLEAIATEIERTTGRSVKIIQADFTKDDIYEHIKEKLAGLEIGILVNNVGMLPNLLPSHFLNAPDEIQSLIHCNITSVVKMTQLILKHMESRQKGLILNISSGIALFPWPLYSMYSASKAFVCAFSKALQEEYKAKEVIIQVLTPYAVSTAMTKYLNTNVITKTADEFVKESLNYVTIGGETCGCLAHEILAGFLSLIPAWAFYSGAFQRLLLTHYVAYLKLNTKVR
Protocol: Human 293-EBNA cells stably transfected with 17β-HSD3 were plated at 50,000 cells/well in 24 well plates in complete growth medium. After 48 h 2–3 nM [^3H]-androstenedione in assay medium (500 mL DMEM medium with 5 mL 100 × L-glutamine and 5 mL 7.5% sodium bicarbonate solution) was added with or without test compound at 1.5 mL/well (triplicate), and the cells incubated at 37 °C. Two hours later 1 mL medium was removed from each well and placed in a 125 × 16 mm glass test tube containing 25 µL of recovery solution (5000 dpm ^14C-testosterone and 25 µg unlabelled testosterone […], and the tubes vortexed at high speed for 2 × 30 s. After the samples had settled into two phases, they were snap-frozen in a dry ice/methanol bath. The upper organic phase was decanted into 75 × 12 mm tubes and evaporated to dryness under an airstream using a sample concentrator (TECHNE) at 40 °C. The samples were resuspended in ether (8 drops, then a further 3), spotted onto ca 60 F254 20 cm × 20 cm TLC plates and separated using a 4:1 v/v dichloromethane: ethyl acetate mobile phase. After drying the plates, the major spots were marked under a UV lamp, cut out and placed in individual scintillation vials containing 0.5 mL methanol. These were then shaken lightly and allowed to stand for 15 min before adding 10 mL of EcoScintA (scintillation fluid) to each tube along with 0.5 mL assay medium and counted in a scintillation spectrometer (Beckman, High Wycombe, Bucks, UK), using a program for duel [^3H/^14C] isotopes. The number of cells/well was then counted using a Coulter10 counter (Beckman). The inhibitory activity of the test compounds was then assessed by calculating the amount of product formed correcting for crossover between isotope counts, recovery, dilution and non-enzymatic degradation fmol/hr/million cells) with and without inhibitor (% inhibition).

[1] = Compound toxicity, MTS/Alamar Blue proliferation assay, PC-3; assay type: cell-based; conditions: human, PC-3 (AR-) prostate cancer cells; PC3 (AR-); read-out: Cytotoxicity IC50 (µM) PC3 (AR-)
Protocol: (§1) AR+ (LNCaP) and AR- (PC-3) PCa cell lines were used as standard lines to determine the cytotoxicity of HSD3 inhibitor compounds. Toxicity was assessed over 96 h in 96 well plates using the standard MTS/Alamar Blue proliferation assay and over longer durations by cell counting methodologies.

[2] = Compound toxicity, MTS/Alamar Blue proliferation assay, LNCaP; assay type: cell-based; conditions: human, LNCaP (AR+) prostate cancer cells; read-out: Cytotoxicity IC50 (µM) LNCaP (AR+)
Protocol: as §1

[3] = 10 μM, TLC assay, mean of at least two measurements, typically SD ±5%
[4] = TLC assay, 293-EBNA[HSD3] cells, read-out: IC50 (17β-HSD3)

inhibition at 10 µM (17β-HSD3; [3]) | melting point | 17β-HSD3 inhibitory activity in words (17β-HSD3) | Compound | other results
 |  |  | 1-[4-(2-[2-(4-Chloro-phenoxy)-phenylamino]-methyl-phenylamino)-piperidin-1-yl]-ethanone [Compound 21] | % Inhibition at 10 μM (17β-HSD3) (17β-HSD3; [3]): 36%
 |  |  | CC(=O)N1Cc2ccccc2CSc2ccccc21 [BMS Dibenzazocine] | IC50 at 96 h [1]: > 50 µM; IC50 (17β-HSD3; Table 11, read-out: HSD3 Activity (IC50 nM)): 8.6 nM; IC50 at 96 h [2]: 19.4 µM
60 to 70% | 98 to 100 °C |  | CC(=O)Nc1ccccc1CNc1ccccc1Oc1ccc(OC(F)(F)F)cc1 [Compound 2, N-(2-([2-(4-Trifluoromethoxy-phenoxy)-phenylamino]-methyl)-phenyl)-acetamide] | 
60 to 70% | 178 to 180 °C |  | CC(=O)Nc1ccccc1CNc1cc(F)ccc1Oc1ccc(Cl)cc1 [Compound 3, N-(2-([2-(4-Chloro-phenoxy)-5′-fluoro-phenylamino]-methyl)-phenyl)-acetamide] | 
86% | 154 to 156 °C | good activity; also recorded: active | CC(=O)Nc1cc2c(cc1CNc1ccccc1Oc1ccc(Cl)cc1)OCO2 [Compound 4, N-(6-[2-(4-Chloro-phenoxy)-phenylamino]-methyl-benzo[1,3]dioxol-5-yl)-acetamide] | IC50 (17β-HSD3; [4]): 450 nM
< 20% | 153 to 155 °C |  | CC(=O)Nc1c(CNc2ccccc2Oc2ccc(Cl)cc2)ccc2ccccc12 [Compound 7, N-(2-[2-(4-Chloro-phenoxy)-phenylamino]-methyl-naphthalen-1-yl)-acetamide] | 
60 to 70% | 138 to 140 °C |  | CC(=O)Nc1ccc(C)cc1CNc1ccccc1Oc1ccc(Cl)cc1 [Compound 8, N-(2-[2-(4-Chloro-phenoxy)-phenylamino]-methyl-4-methyl-phenyl)-acetamide] | 
97% |  |  | CC(=O)Nc1ccc(Cl)cc1CNc1ccccc1Oc1ccc(Cl)cc1 [Compound 9, N-(4-Chloro-2-[2-(4-chloro-phenoxy)-phenylamino]-methyl-phenyl)-acetamide] | IC50 (17β-HSD3; [4]): 1900 nM
< 20% | 135 to 137 °C |  | CC(=O)Nc1ccc(Cl)cc1CNc1ccccc1Oc1ccc(Cl)cc1Cl [Compound 10, N-(4-Chloro-2-[2-(2,4-dichloro-phenoxy)-phenylamino]-methyl-phenyl)-acetamide] | 
 | 121 to 123 °C | good activity | CC(=O)Nc1ccc(Cl)cc1CNc1ccccc1Oc1ccc(OC(F)(F)F)cc1 [Compound 11, N-(4-Chloro-2-[2-(4-trifluoromethoxy-phenoxy)-phenylamino]-methyl-phenyl)-acetamide] | 
 |  |  | CC(=O)N(C)c1ccccc1CNc1ccccc1Oc1ccc(Cl)cc1 [Compound 14, N-(2-([2-(4-Chloro-phenoxy)-phenylamino]-methyl)-phenyl)-N-methyl-acetamide] | IC50 (17β-HSD3; [4]): 460 nM
60 to 70% |  | weakly active | CC(=O)N(C)c1ccccc1CN(C)c1ccccc1Oc1ccc(Cl)cc1 [Compound 15, N-[2-(([2-(4-Chloro-phenoxy)-phenyl]-methyl-amino)-methyl)-phenyl]-N-methyl-acetamide] | 
< 20% |  | inactive | CC(=O)Nc1ccccc1CN(C)c1ccccc1Oc1ccc(Cl)cc1 [Compound 16, N-[2-(([2-(4-Chloro-phenoxy)-phenyl]-methyl-amino)-methyl)-phenyl]-acetamide] | 
< 20% |  | inactive | CC(=O)Nc1ccccc1CN(C(C)=O)c1ccccc1Oc1ccc(Cl)cc1 [Compound 17, N-(2-Acetylamino-benzyl)-N-[2-(4-chloro-phenoxy)-phenyl]-acetamide] | 
29% | 137 to 139 °C |  | CC(=O)Nc1ccc(CNc2ccccc2Oc2ccc(Cl)cc2)cc1 [Compound 18, N-(4-([2-(4-Chloro-phenoxy)-phenylamino]-methyl)-phenyl)-acetamide] | 
< 20% |  | inactive | CC(=O)Nc1ccc(CNc2ccccc2Oc2ccc(Cl)cc2Cl)cc1 [Compound 19, N-(4-([2-(2,4-Dichloro-phenoxy)-phenylamino]-methyl)-phenyl)-acetamide] | 
53% | 187 to 190 °C |  | CC(=O)Nc1cccc(CNc2ccccc2Oc2ccc(Cl)cc2)c1 [Compound 20, N-(3-[2-(4-Chloro-phenoxy)-phenylamino]-methyl-phenyl)-acetamide] | 
55% |  |  | CC(=O)N1CCC(Nc2ccccc2CN(C(C)=O)c2ccccc2Oc2ccc(Cl)cc2)CC1 [Compound 22, N-[2-(1-Acetyl-piperidin-4-ylamino)-benzyl]-N-[2-(4-chloro-phenoxy)-phenyl]-acetamide] | 
97% |  |  | CC(=O)N1CCC(C(=O)Nc2cccc(CNc3ccccc3Oc3ccc(Cl)cc3)c2)CC1 [Compound 24, 1-Acetyl-piperidine-4-carboxylic acid (3-[2-(4-chloro-phenoxy)-phenylamino]-methyl-phenyl)-amide] | IC50 (17β-HSD3; [4]): 1100 nM
20 to 60% |  |  | CCNc1ccccc1C(C)Nc1ccccc1Oc1ccc(Cl)cc1 (stereo not shown) [Compound 25, N-(2–1-[2-(4-Chloro-phenoxy)-phenylamino]-ethyl-phenyl)-ethylamine] | 
20 to 60% |  |  | C=CCC(Nc1ccccc1Oc1ccc(Cl)cc1)c1ccccc1NC(C)=O (stereo not shown) [Compound 26] | IC50 (17β-HSD3; [4]): 520 nM
< 20% |  |  | CC(=O)Nc1ccccc1C(Cc1ccccc1)Nc1ccccc1Oc1ccc(Cl)cc1 (stereo not shown) [Compound 27, N-(2-(1-[2-(4-Chloro-phenoxy)-phenylamino]-2-phenyl-ethyl)-phenyl)-acetamide] | 
 |  |  | CCCC(Nc1ccccc1Oc1ccc(Cl)cc1)c1ccccc1NC(C)=O (stereo not shown) [Compound 28, N-(2-(1-[2-(4-Chloro-phenoxy)-phenylamino]-butyl)-phenyl)-acetamide] | IC50 (17β-HSD3; [4]): 370 nM
 |  |  | CC(=O)Nc1ccccc1C(C)Nc1ccccc1Oc1ccc(Cl)cc1 (stereo not shown) [Compound 29, N-(2-(1-[2-(4-Chloro-phenoxy)-phenylamino]-ethyl)-phenyl)-acetamide] | IC50 at 96 h [1]: 18.3 µM; IC50 (17β-HSD3; [4]): 76 nM; IC50 at 96 h [2]: 14.6 µM
 | 139 to 141 °C | active | C=CC[C@H](Nc1ccccc1Oc1ccc(Cl)cc1)c1ccccc1NC(C)=O [Compound 32, S-(+)-N-(2-(1-[2-(4-Chloro-phenoxy)-phenylamino]-but-2-enyl)-phenyl)-acetamide] | IC50 (17β-HSD3; [4]): 370 nM

Compound | inhibition at 10 µM (17β-HSD3; [3]) | melting point | 17β-HSD3 inhibitory activity in words (17β-HSD3) | other results
COc1cc(CNc2ccccc2Oc2ccc(Cl)cc2)c(NC(C)=O)cc1OC [Compound 5, N-(2-[2-(4-Chloro-phenoxy)-phenylamino]-methyl-4,5-dimethoxy-phenyl)-acetamide] | < 20% | 117 to 118 °C | activity was lost; also recorded: inactive | 
COc1cc(CNc2ccccc2Oc2ccc(Cl)cc2Cl)c(NC(C)=O)cc1OC [Compound 6, N-(2-([2-(2,4-Dichloro-phenoxy)-phenylamino]-methyl)-4,5-dimethoxy-phenyl)-acetamide] | < 20% | 128 to 131 °C | activity was lost; also recorded: inactive | 
